Measured values as given in patent US8163766B2, “Beta-secretase modulators and methods of use” (Amgen Inc., priority 2005, dated 2012).

Tested on: Aβ 40 in conditioned media of cells stably expressing Amyloid Precursor Protein (APP)
Test: BACE Cell-Based Assay (Aβ40 in conditioned medium, sandwich ELISA)
Conditions: 24 hours of incubation with the test compounds, Aβ 40 by sandwich ELISA, read-out: IC50 values in the cell-based assay (inhibition of Aβ 40)
Procedure, shortened: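 APP-stably-expressing cells in DMEM/10% FBS exposed 24 h to 10-point compound dilutions starting at 100 or 10 μM, 0.1% DMSO final. Aβ40 in conditioned medium measured by sandwich ELISA (pAb40 capture, biotinylated 6E10 detection, Eu time-resolved fluorescence); IC50 from percent inhibition versus concentration.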

| IC50 [µM] | Compound |
| --- | --- |
| ≤ 5 | CC1(C)C[C@H](NC[C@@H](O)[C@H](Cc2ccccc2)NC(=O)c2cc(-c3ccccn3)c(=O)n(C3CCCC3)c2)c2cc(Br)ccc2N1 [Example 482, N-((1S,2R)-3-(((4S)-6-bromo-2,2-dimethyl-1,2,3,4-tetrahydro-4-quinolinyl)amino)-2-hydroxy-1-(phenylmethyl)propyl)-1′-cyclopentyl-2′-oxo-1′,2′-dihydro-2,3′-bipyridine-5′-carboxamide] |
| ≤ 5 | CCCOC[C@H](NC(=O)c1cc(-c2ccccn2)c(=O)n(C2CCCC2)c1)[C@H](O)CN[C@H]1CC2(CCC2)Oc2ccc(CC)cc21 [Example 483, 1′-cyclopentyl-N-((1S,2R)-3-(((4S)-6-ethyl-3,4-dihydrospiro[chromene-2,1′-cyclobutan]-4-yl)amino)-2-hydroxy-1-((propyloxy)methyl)propyl)-2′-oxo-1′,2′-dihydro-2,3′-bipyridine-5′-carboxamide] |
| ≤ 5 | CCc1ccc2c(c1)[C@@H](NC[C@@H](O)[C@H](Cc1ccccc1)NC(=O)[C@H]1CN(C(=O)N3CCCCC3)CCO1)CC(C)(C)O2 [Example 484, (2R)-N-((1S,2R)-3-(((4S)-6-ethyl-2,2-dimethyl-3,4-dihydro-2H-chromen-4-yl)amino)-2-hydroxy-1-(phenylmethyl)propyl)-4-(1-piperidinylcarbonyl)-2-morpholinecarboxamide] |
| ≤ 5 | CCc1ccc2c(c1)[C@@H](NC[C@@H](O)[C@H](Cc1ccccc1)NC(=O)[C@@H]1CN(C(=O)N3CCCCC3)CCO1)CC(C)(C)O2 [Example 485, (2S)-N-((1S,2R)-3-(((4S)-6-ethyl-2,2-dimethyl-3,4-dihydro-2H-chromen-4-yl)amino)-2-hydroxy-1-(phenylmethyl)propyl)-4-(1-piperidinylcarbonyl)-2-morpholinecarboxamide] |
| ≤ 5 | CC(C)(C)Cc1ccc2c(c1)[C@H](NC[C@@H](O)[C@H](Cc1ccccc1)NC(=O)c1cc(-c3ccccn3)c(=O)n(C3CCCC3)c1)CC(C)(C)N2 [Example 488, 1′-cyclopentyl-N-((1S,2R)-3-(((4R)-6-(2,2-dimethylpropyl)-2,2-dimethyl-1,2,3,4-tetrahydro-4-quinolinyl)amino)-2-hydroxy-1-(phenylmethyl)propyl)-2′-oxo-1′,2′-dihydro-2,3′-bipyridine-5′-carboxamide] |
| ≤ 5 | CC(C)(C)Cc1ccc2c(c1)[C@@H](NC[C@@H](O)[C@H](Cc1ccccc1)NC(=O)c1cc(-c3ccccn3)c(=O)n(C3CCCC3)c1)CC(C)(C)N2 [Example 489, 1′-cyclopentyl-N-((1S,2R)-3-(((4S)-6-(2,2-dimethylpropyl)-2,2-dimethyl-1,2,3,4-tetrahydro-4-quinolinyl)amino)-2-hydroxy-1-(phenylmethyl)propyl)-2′-oxo-1′,2′-dihydro-2,3′-bipyridine-5′-carboxamide] |
| ≤ 5 | Cc1cccc(C(=O)N2CCO[C@@H](C(=O)N[C@@H](Cc3ccccc3)[C@H](O)CN[C@H]3CC4(CCC4)Cc4ncc(C)cc43)C2)c1 [Example 495, (2R)-N-((1S,2R)-2-hydroxy-3-(((5′S)-3′-methyl-5′,8′-dihydro-6′H-spiro[cyclobutane-1,7′-quinolin]-5′-yl)amino)-1-(phenylmethyl)propyl)-4-((3-methylphenyl)carbonyl)-2-morpholinecarboxamide] |
| ≤ 5 | CCc1ccc2c(c1)[C@@H](NC[C@@H](O)[C@H](Cc1csc(C)n1)NC(=O)c1cc(-c3ccccn3)c(=O)n(C3CCCC3)c1)CC1(CCC1)O2 [Example 500, 1′-cyclopentyl-N-((1S,2R)-3-(((4S)-6-ethyl-3,4-dihydrospiro[chromene-2,1′-cyclobutan]-4-yl)amino)-2-hydroxy-1-((2-methyl-1,3-thiazol-4-yl)methyl)propyl)-2′-oxo-1′,2′-dihydro-2,3′-bipyridine-5′-carboxamide] |
| ≤ 5 | CC(C)n1cc(C(=O)N[C@@H](Cc2ccccc2)[C@H](O)CN[C@H]2CC(C)(C)Cc3sc(CC(C)(C)C)cc32)cc(-c2ccccn2)c1=O [Example 501, N-((1S,2R)-3-(((4S)-2-(2,2-dimethylpropyl)-6,6-dimethyl-4,5,6,7-tetrahydro-1-benzothien-4-yl)amino)-2-hydroxy-1-(phenylmethyl)propyl)-1′-(1-methylethyl)-2′-oxo-1′,2′-dihydro-2,3′-bipyridine-5′-carboxamide] |

The remaining lines, values behind:

| Compound | IC50 [µM] |
| --- | --- |
| Cc1cccc(C(=O)N2CCO[C@H](C(=O)N[C@@H](Cc3cccc(C#N)c3)[C@H](O)CN[C@H]3CC4(CCC4)Cc4ncc(C)cc43)C2)c1 [Example 490, (2S)-N-((1S,2R)-1-((3-cyanophenyl)methyl)-2-hydroxy-3-(((5′S)-3′-methyl-5′,8′-dihydro-6′H-spiro[cyclobutane-1,7′-quinolin]-5′-yl)amino)propyl)-4-((3-methylphenyl)carbonyl)-2-morpholinecarboxamide] | ≤ 5 |
| Cc1cccc(C(=O)N2CCO[C@@H](C(=O)N[C@@H](Cc3cccc(C#N)c3)[C@H](O)CN[C@H]3CC4(CCC4)Cc4ncc(C)cc43)C2)c1 [Example 491, (2R)-N-((1S,2R)-1-((3-cyanophenyl)methyl)-2-hydroxy-3-(((5′S)-3′-methyl-5′,8′-dihydro-6′H-spiro[cyclobutane-1,7′-quinolin]-5′-yl)amino)propyl)-4-((3-methylphenyl)carbonyl)-2-morpholinecarboxamide] | ≤ 5 |
| Cc1cccc(C(=O)N2CCO[C@H](C(=O)N[C@@H](Cc3cc(F)cc(F)c3)[C@H](O)CN[C@H]3CC4(CCC4)Cc4ncc(C)cc43)C2)c1 [Example 492, (2S)-N-((1S,2R)-1-((3,5-difluorophenyl)methyl)-2-hydroxy-3-(((5′S)-3′-methyl-5′,8′-dihydro-6′H-spiro[cyclobutane-1,7′-quinolin]-5′-yl)amino)propyl)-4-((3-methylphenyl)carbonyl)-2-morpholinecarboxamide] | ≤ 5 |
| Cc1cccc(C(=O)N2CCO[C@@H](C(=O)N[C@@H](Cc3cc(F)cc(F)c3)[C@H](O)CN[C@H]3CC4(CCC4)Cc4ncc(C)cc43)C2)c1 [Example 493, (2R)-N-((1S,2R)-1-((3,5-difluorophenyl)methyl)-2-hydroxy-3-(((5′S)-3′-methyl-5′,8′-dihydro-6′H-spiro[cyclobutane-1,7′-quinolin]-5′-yl)amino)propyl)-4-((3-methylphenyl)carbonyl)-2-morpholinecarboxamide] | ≤ 5 |
| Cc1cccc(C(=O)N2CCO[C@H](C(=O)N[C@@H](Cc3ccccc3)[C@H](O)CN[C@H]3CC4(CCC4)Cc4ncc(C)cc43)C2)c1 [Example 494, (2S)-N-((1S,2R)-2-hydroxy-3-(((5′S)-3′-methyl-5′,8′-dihydro-6′H-spiro[cyclobutane-1,7′-quinolin]-5′-yl)amino)-1-(phenylmethyl)propyl)-4-((3-methylphenyl)carbonyl)-2-morpholinecarboxamide] | ≤ 5 |
| Cc1cccc(C(=O)N2CCO[C@H](C(=O)N[C@@H](Cc3cccc(C#N)c3)[C@H](O)CN[C@H]3CC(C)(C)Cc4ncc(C)cc43)C2)c1 [Example 496, (2S)-N-((1S,2R)-1-((3-cyanophenyl)methyl)-2-hydroxy-3-(((5S)-3,7,7-trimethyl-5,6,7,8-tetrahydro-5-quinolinyl)amino)propyl)-4-((3-methylphenyl)carbonyl)-2-morpholinecarboxamide] | ≤ 5 |
| Cc1cccc(C(=O)N2CCO[C@@H](C(=O)N[C@@H](Cc3cccc(C#N)c3)[C@H](O)CN[C@H]3CC(C)(C)Cc4ncc(C)cc43)C2)c1 [Example 497, (2R)-N-((1S,2R)-1-((3-cyanophenyl)methyl)-2-hydroxy-3-(((5S)-3,7,7-trimethyl-5,6,7,8-tetrahydro-5-quinolinyl)amino)propyl)-4-((3-methylphenyl)carbonyl)-2-morpholinecarboxamide] | ≤ 5 |
| Cc1cccc(C(=O)N2CCO[C@H](C(=O)N[C@@H](Cc3ccccc3)[C@H](O)CN[C@H]3CC(C)(C)Cc4ncc(C)cc43)C2)c1 [Example 498, (2S)-N-((1S,2R)-2-hydroxy-1-(phenylmethyl)-3-(((5S)-3,7,7-trimethyl-5,6,7,8-tetrahydro-5-quino-linyl)amino)propyl)-4-((3-methylphenyl)carbonyl)-2-morpholinecarboxamide] | ≤ 5 |
| Cc1cccc(C(=O)N2CCO[C@@H](C(=O)N[C@@H](Cc3ccccc3)[C@H](O)CN[C@H]3CC(C)(C)Cc4ncc(C)cc43)C2)c1 [Example 499, (2R)-N-((1S,2R)-2-hydroxy-1-(phenylmethyl)-3-(((5S)-3,7,7-trimethyl-5,6,7,8-tetrahydro-5-quinolinyl)amino)propyl)-4-((3-methylphenyl)carbonyl)-2-morpholinecarboxamide] | ≤ 5 |
| Cc1cnc2c(c1)[C@@H](NC[C@@H](O)[C@H](Cc1ccccc1)NC(=O)C1CCOCC1)CC1(CCC1)C2 [Example 502, N-((1S,2R)-2-hydroxy-3-(((5′S)-3′-methyl-5′,8′-dihydro-6′H-spiro[cyclobutane-1,7′-quinolin]-5′-yl)amino)-1-(phenylmethyl)propyl)tetrahydro-2H-pyran-4-carboxamide] | ≤ 5 |
| Cc1cnc2c(c1)[C@@H](NC[C@@H](O)[C@H](Cc1cc(F)cc(F)c1)NC(=O)C1CCOCC1)CC(C)(C)C2 [Example 503, N-((1S,2R)-1-((3,5-difluorophenyl)methyl)-2-hydroxy-3-(((5S)-3,7,7-trimethyl-5,6,7,8-tetrahydro-5-quinolinyl)amino)propyl)tetrahydro-2H-pyran-4-carboxamide] | ≤ 5 |
| Cc1cnc2c(c1)[C@@H](NC[C@@H](O)[C@H](Cc1ccccc1)NC(=O)C1CCOCC1)CC(C)(C)C2 [Example 504, N-((1S,2R)-2-hydroxy-1-(phenylmethyl)-3-(((5S)-3,7,7-trimethyl-5,6,7,8-tetrahydro-5-quinolinyl)amino)propyl)tetrahydro-2H-pyran-4-carboxamide] | ≤ 5 |
